The test system of the test is T1, PedE_M.s.
T1 construct: gene pedE; C-terminal 8xHis tag; codon-optimised gene expressed in Methylorubrum extorquens AM1 (quadruple mutant) with Ca2+; Ni-NTA purified; signal peptide not discussed
Kind of test: PMS-mediated DCPIP reduction at […] nm; Michaelis-Menten fit. The class given is biochemical. The note with it: PMS 1 mM, DCPIP 150 uM, 45 mM NH4Cl, 100 mM Tris-HCl pH 9.0; optimal conditions (30 °C optimum; general assay text says about 26 °C); Ca2+-PQQ enzyme; read-out: Methylopila sp. M107 / Km.
On to `C=O` [Formaldehyde], for which the Km amounted to 39 ± 21 µM. Under `CCCO` [Propanol] stands 25 ± 6 µM. In the case of `CCCCO` [Butanol] it was 39 ± 15 µM. Consider `CO` [Methanol], for which the Km was 25 ± 6 µM. As to `CCCCCO` [Pentanol], the Km came out at 49 ± 14 µM.

As to `CCO` [Ethanol], the Km was 28 ± 6 µM. As to `CCCCCCO` [Hexanol], the Km was found to be 79 ± 14 µM. In the case of `CC(C)O` [Isopropanol] it was 35 ± 12 µM.

The values above are taken from paper PMC10409515, “Enzymatic properties of alcohol dehydrogenase PedE_M.s. derived from Methylopila sp. M107 and its broad metal selectivity” (Frontiers in Microbiology, 2023).
